# Test results published in patent EP0745083B1, “2-HETEROARYL-5,11-DIHYDRO-6H-DIPYRIDO [3,2-b:2',3'-e][1,4]DIAZEPINES AND THEIR USE IN THE PREVENTION OR TREATMENT OF HIV INFECTION” (BOEHRINGER INGELHEIM PHARMACEUTICALS INC., priority 1994, dated 1995).
# Assays:
# Format in all cases: biochemical, Human Immunodeficiency Virus (HIV-1)
# [1] = molecular target: T1, HIV-1 RT Y188L (Human immunodeficiency virus type 1 group M subtype B, UniProt P03367, Y787L); assay: Reverse Transcriptase (RT) Assay, Y188L mutant enzyme; details: 1 µM compound
# T1 construct: effective against the reverse transcriptase of many mutant viruses; made in house
# [2] = molecular target: T2, HIV-1 RT Y181C (Human immunodeficiency virus type 1 group M subtype B, UniProt P03367, Y780C); assay: Reverse Transcriptase (RT) Assay, Y181C mutant enzyme; details: 1 µM compound; for inhibition at 1 µM: read-out: Reverse Transciptase Assay % inhibition (1 µM) Y181C
# T2 construct: Utilization of mutant RT eraymes (Y181C and Y181L, prepared by site-directed mutagenesis); made in house
# Description: (§1) Among the enzymes for which Human Immunodeficiency Virus (HIV-1) encodes is a reverse transcriptase (1), so-named because it transcribes a DNA copy from an RNA template. This activity can be quantitatively measured in a cell-free enzyme assay, which has been previously described (2), and is based upon the observation that reverse transcriptase is able to use a synthetic template [poly r(C) primed with oligo d(G)] to transcribe a radio-labelled, acid-precipitable DNA strand utilizing ^3H-dGTP as a substrate. The assay described below utilizes the wild type (WT) enzyme, which is the predominant form of the enzyme observed in patients infected with HIV-1. Utilization of mutant RT eraymes (Y181C and Y181L, prepared by site-directed mutagenesis in which the tyrosine residue at codon 181 has been replaced by a cysteine or a leucine residue, respectively) and analogous assay conditions allows compounds to be evaluated for their effectiveness at inhibiting these mutant enzymes.
# (§2) The 2X concentrated stock reaction mixture is aliquoted and stored at -20°C. The mixture is stable and thawed for use in each assay. This enzyme assay has been adapted to a 96 well microtiter plate system, and has been previously described (6). Tris buffer (50 mM, pH 7.4), vehicle (solvent diluted to match the compound dilution), or compounds in vehicle are dispensed into 96-well microtiter plates (10µL/well; 3 wells/ compound). The HIV-1 RT enzyme is thawed, diluted in 50mM Tris pH 7.4 so that fifteen µL of diluted enzyme contain 0.001 Unit (one unit is that amount of enzyme to transform 1 micromole of substrate per minute at 25°C), and fifteen µL are dispensed per well. Twenty µL of 0.12-0.5M EDTA are added to the first three wells of the microtiter plate. EDTA chelates the Mg^++ present and prevents reverse transcription. This group serves as background polymerization which is subtracted from all other groups. Twenty-five ul of the 2X reaction mixture are added to all wells and the assay is allowed to incubate at room temperature for 60 minutes. The assay is terminated by precipitating the DNA in each well with 50µL of 10% trichloracetic acid (TCA) (10% w/v) in sodium pyrophosphate (1% w/v). The microtiter plate is incubated for 15 minutes at 4°C and the precipitate is fixed onto #30 glass fiber paper (Schleicher & Schuell) using a Skatron semi-automatic harvester. The filters are then washed with additional TCA (5%) containing sodium pyrophosphate (1%), rinsed with aqueous ethanol (70%), dried, and transferred to scintillation vials (6). Each vial receives 2 mL of scintillation cocktail and is counted in a Beckman beta counter. The calculation for percent inhibition is as follows: % inhibition =(CPM Mean Test Value - CPM Mean Control Value X100)/(CPM Mean Control Value) [formula]
# [3] = molecular target: T3, HIV-1 RT wild type (WT) enzyme (Human immunodeficiency virus type 1 group M subtype B, UniProt P03367); assay: Reverse Transcriptase (RT) Assay, wild type enzyme (RNA-dependent DNA polymerase activity); details: 1 µM compound; for inhibition at 1 µM: read-out: Reverse Transciptase Assay % inhibition (1 µM) WT
# T3 construct: Reverse transcriptase enzyme from the LAV strain of Human Immunodeficiency Virus (HIV-1) (1) was isolated from the bacterial strain JM109; made in house; host or cells: E. coli JM109 (clone pBRTprt1+ in vector pIBI21, lac promoter)
# Description: Utilizing the Reverse Transcriptase (RT) Assay described below, compounds can be tested for their ability to inhibit the RNA-dependent DNA polymerase activity of HIV-1 RT. Certain specific compounds described in the Examples which appear below, were so tested.
# as §1
# Reverse transcriptase enzyme from the LAV strain of Human Immunodeficiency Virus (HIV-1) (1) was isolated from the bacterial strain JM109 (3) expressing the DNA clone pBRTprt1+ (2) which is under the control of the lac promotor in the expression vector pIBI21 (4). An overnight culture grown in 2XYT medium (37°C, 225 rpm) (5) supplemented with 100 µg/mL ampicillin for positive selection is inoculated at a 1:40 dilution into M9 medium supplemented with 10µg/mL thiamine, 0.5% casamino acids, and 50 µg/mL ampicillin (5). The culture is incubated (37°C, 225 rpm) until it reaches an OD540 of 0.3-0.4. At that time the repressor inhibitor IPTG (isopropyl β-D-thiogalactopyranoside) is added to 0.5mM, and the mixture is incubated for 2 additional hours. Bacteria are pelleted, resuspended in a 50mM Tris, 0.6mM EDTA, 0.375M NaCl buffer and digested by the addition of lysozyme (1mg/mL) for 30 minutes on ice. The cells are lysed by the addition of 0.2% NP-40 and brought to 1M NaCl.
# After removal of the insoluble debris by centrifugation, the protein is precipitated by the addition of 3 volumes of saturated aqueous ammonium sulfate. The enzyme is pelleted, resuspended in RT buffer (50mM Tris pH 7.5, 1mM EDTA, 5mM DTT, 0.1% NP-40, 0.1M NaCI, and 50% glycerol), and stored at -70°C for further use.
# as §2, with “The filters are then washed with additional TCA (5%) containing sodium pyrophosphate (1%), rinsed with aqueous ethanol (70%), dried, and transferred to scintillation vials (6). Each vial receives 2 mL of scintillation cocktail and is counted in a Beckman beta counter. The calculation for percent inhibition is as follows: % inhibition =(CPM Mean Test Value - CPM Mean Control Value X100)/(CPM Mean Control Value) [formula]” left out
molecule,measurement,setting,value
"2-(1-Carbamylpyrazol-3-yl)-5,11-dihydro-11-ethyl-5-methyl-6H-dipyrido[3,2-b:2',3'-e][1,4]-diazepin-6-one [Example 7]",Reverse Transciptase Assay % inhibition (1 µM) Y188L,[1],52%
same,Reverse Transciptase Assay % inhibition (1 µM) Y181C,[2],84%
same,Reverse Transciptase Assay % inhibition (1 µM) WT,[3],94%
"CCN1c2ncccc2C(=O)N(C)c2ccc(-c3cnn(C)c3)nc21 [Example 3, 5,11-Dihydro-11-ethyl-5-methyl-2-(1-methylpyrazol-4-yl)-6H-dipyrido[3,2-b:2',3'-e][1,4]-diazepin-6-one]",Reverse Transciptase Assay % inhibition (1 µM) Y188L,[1],24%
same,inhibition at 1 µM,[2],36%
same,inhibition at 1 µM,[3],63%
"CCN1c2ncccc2C(=O)N(C)c2ccc(-c3cnn(C(C)=O)c3)nc21 [Example 8, 2-(1-Acetylpyrazol-4-yl)-5,11-dihydro-11-ethyl-5-methyl-6H-dipyrido[3,2-b:2',3'-e][1,4] diazepin-6-one]",Reverse Transciptase Assay % inhibition (1 µM) Y188L,[1],80%
same,inhibition at 1 µM,[2],80%
same,inhibition at 1 µM,[3],96%
"CCN1c2ncccc2C(=O)N(C)c2ccc(-c3cc[nH]n3)nc21 [Example 9, 5,11-Dihydro-11-ethyl-5-methyl-2-(3-pyrazolyl)-6H-dipyrido[3,2-b:2',3'-e][1,4]diazepin-6-one]",Reverse Transciptase Assay % inhibition (1 µM) Y188L,[1],20%
same,inhibition at 1 µM,[2],67%
same,inhibition at 1 µM,[3],67%
"CCN1c2ncccc2C(=O)N(C)c2ccc(-c3c[nH]nc3C)nc21 [Example 10, 5,11-Dihydro-11-ethyl-5-methyl-2-(3-methylpyrazol-4-yl)-6H-dipyrido[3,2-b:2',3'-e][1,4]-diazepin-6-one]",Reverse Transciptase Assay % inhibition (1 µM) Y188L,[1],66%
same,inhibition at 1 µM,[2],73%
same,inhibition at 1 µM,[3],94%
"CCN1c2ncccc2C(=O)N(C)c2ccc(-c3cccn3C)nc21 [Example 11, 5,11-Dihydro-11-ethyl-5-methyl-2-(1-methylpyrrol-2-yl)-6H-dipyrido[3,2-b:2',3'-e][1,4]-diazepin-6-one]",inhibition at 1 µM,[3],81%
"CCN1c2ncccc2C(=O)N(C)c2ccc(-c3cccn3C(C)=O)nc21 [Example 14, 2-(1-Acetylpyrrol-2-yl)-5,11-dihydro-11-ethyl-5-methyl-6H-dipyrido[3,2-b:2',3'-e][1,4]-diazepin-6-one]",Reverse Transciptase Assay % inhibition (1 µM) Y188L,[1],23%
same,inhibition at 1 µM,[2],51%
same,inhibition at 1 µM,[3],74%
"CCN1c2ncccc2C(=O)N(C)c2ccc(-c3cc[nH]c3C(C)=O)nc21 [Example 15, 2-(2-Acetylpyrrol-3-yl)-5,11-dihydro-11-ethyl-5-methyl-6H-dipyrido[3,2-b:2',3'-e][1,4]-diazepin-6-one]",Reverse Transciptase Assay % inhibition (1 µM) Y188L,[1],10%
same,inhibition at 1 µM,[2],59%
same,inhibition at 1 µM,[3],52%
"CCOC(=O)c1cc(-c2ccc3c(n2)N(CC)c2ncccc2C(=O)N3C)c[nH]1 [Example 16, 5,11-Dihydro-2-[2-(ethoxycarbonyl)pyrrol-4-yl]-11-ethyl-5-methyl-6H-dipyrido-[3,2-b:2',3'-e][1,4]diazepin-6-one]",inhibition at 1 µM,[2],74%
same,inhibition at 1 µM,[3],83%
"CCN1c2ncccc2C(=O)N(C)c2ccc(-c3c[nH]c(C(C)=O)c3)nc21 [Example 17, 2-(2-Acetylpyrrol-4-yl)-5,11-dihydro-11-ethyl-5-methyl-6H-dipyrido[3,2-b:2',3'-e][1,4]-diazepin-6-one]",Reverse Transciptase Assay % inhibition (1 µM) Y188L,[1],27%
same,inhibition at 1 µM,[2],62%
same,inhibition at 1 µM,[3],78%
"CCN1c2ncccc2C(=O)N(C)c2ccc(-c3cc[nH]c3C#N)nc21 [Example 18, 2-(2-Cyanopyrrol-3-yl)-5,11-dihydro-11-ethyl-5-methyl-6H-dipyrido[3,2-b:2',3'-e][1,4]-diazepin-6-one]",Reverse Transciptase Assay % inhibition (1 µM) Y188L,[1],57%
same,inhibition at 1 µM,[2],82%
same,inhibition at 1 µM,[3],87%
"CCN1c2ncccc2C(=O)N(C)c2ccc(-c3c[nH]c(C#N)c3)nc21 [Example 19, 2-(2-Cyanopyrrol-4-yl)-5,11-dihydro-11-ethyl-5-methyl-6H-dipyrido[3,2-b:2',3'-e][1,4]-diazepin-6-one]",Reverse Transciptase Assay % inhibition (1 µM) Y188L,[1],55%
same,inhibition at 1 µM,[2],75%
same,inhibition at 1 µM,[3],91%
"CCN1c2ncccc2C(=O)N(C)c2ccc(-c3ccn(C)c3)nc21 [Example 20, 5,11-Dihydro-11-ethyl-5-methyl-2-(1-methylpyrrol-3-yl)-6H-dipyrido[3,2-b:2',3'-e][1,4]-diazepin-6-one]",Reverse Transciptase Assay % inhibition (1 µM) Y188L,[1],26%
same,inhibition at 1 µM,[2],36%
same,inhibition at 1 µM,[3],65%
"CCN1c2ncccc2C(=O)N(C)c2ccc(-c3c[nH]c(C(=O)O)c3)nc21 [Example 21, 2-(2-Carboxypyrrol-4-yl)-5,11-dihydro-11-ethyl-5-methyl-6H-dipyrido[3,2-b:2',3'-e][1,4]-diazepin-6-one]",Reverse Transciptase Assay % inhibition (1 µM) Y188L,[1],46%
same,inhibition at 1 µM,[2],28%
same,inhibition at 1 µM,[3],33%
"CCN1c2ncccc2C(=O)N(C)c2ccc(-c3c[nH]c(C(N)=O)c3)nc21 [Example 22, 2-(2-Carbamylpyrrol-4-yl)-5,11-dihydro-11-ethyl-5-methyl-6H-dipyrido[3,2-b:2',3'-e][1,4]-diazepin-6-one]",Reverse Transciptase Assay % inhibition (1 µM) Y188L,[1],30%
same,inhibition at 1 µM,[2],72%
same,inhibition at 1 µM,[3],76%
"CCN1C(=O)c2cccnc2N(C)c2nc(-c3ccc[nH]3)ccc21 [Example 23, 5,11-Dihydro-5-ethyl-11-methyl-2-(2-pyrrolyl)-6H-dipyrido[3,2-b:2',3'-e][1,4]diazepin-6-one]",Reverse Transciptase Assay % inhibition (1 µM) Y188L,[1],47%
same,inhibition at 1 µM,[2],37%
same,inhibition at 1 µM,[3],58%
